Assay results published in patent US7064144B2, “Imidazole derivatives as adenosine deaminase inhibitors” (Astellas Pharma Inc., priority 2001, dated 2006).

test system: not given; experiment: not given; conditions: not given

Compound	melting point
C[C@H](O)[C@H](CSc1cccc2ccccc12)n1cnc(C(N)=O)c1.Cl	> 168 °C (dec.)
C[C@H](O)[C@@H](CCOc1cccc(-c2ccc(Cl)nc2)c1)n1cnc(C(N)=O)c1 [Example 87, 1-{(2S,3R)-5-[3-(6-chloro-3-pyridyl)phenoxy]-2-hydroxy-3-pentyl}imidazole-4-carboxamide]	166 to 168 °C
C[C@H](O)[C@@H](COc1ccc(Cl)c(Cl)c1)n1cnc(C(N)=O)c1 [Example 81, 1-{(1R,2S)-1-[(3,4-dichlorophenoxy)methyl]-2-hydroxypropyl}-1H-imidazole-4-carboxamide]	115 to 121 °C
C[C@H](O)[C@@H](CCOc1ccc(-c2ccccc2)cc1)n1cnc(C(N)=O)c1 [Example 28, 1-[(2S,3R)-5-(1,1′-biphenyl-4-yloxy)-2-hydroxy-3-pentyl]imidazole-4-carboxamide]	191 to 193 °C
C[C@H](O)[C@@H](CCOc1ccc2ccc(Cl)cc2c1)n1cnc(C(N)=O)c1 [Example 97, 1-[(2S,3R)-5-(7-chloro-2-naphthyloxy)-2-hydroxy-3-pentyl]imidazole-4-carboxamide]	139 to 141 °C

Continued, values first:

melting point	Compound
> 108 °C (dec.)	C[C@H](O)[C@H](CSc1ccc2ccccc2c1)n1cnc(C(N)=O)c1 [Example 102, 1-{(1R,2S)-2-hydroxy-1-[(2-naphthylthio)methyl]propyl}-1H-imidazole-4-carboxamide]
> 120 °C (dec.)	C[C@H](O)[C@H](CSc1cccc(Cl)c1Cl)n1cnc(C(N)=O)c1 [Example 104, 1-{(1R,2S)-1-{[(2,3-dichlorophenyl)thio]methyl}-2-hydroxypropyl}-1H-imidazole-4-carboxamide]
211 to 213.5 °C	C[C@H](O)[C@@H](CCOc1ccc2c(ccn2C)c1)n1cnc(C(N)=O)c1 [Example 75, 1-[(2S,3R)-2-hydroxy-5-(1-methyl-1H-indol-5-yloxy)-3-pentyl]imidazole-4-carboxamide]

target: T1, Human ADA (Homo sapiens, UniProt P00813); experiment: Adenosine Deaminase (ADA) Enzyme Assay; format: biochemical; conditions: 50% inhibition of Vmax vs vehicle; 0.16 μg/ml ADA, 0.1 mM adenosine, 10 mM phosphate buffer saline pH 7.4, room temperature, A265
T1 construct: made in house
T1 sequence (P00813 1-363): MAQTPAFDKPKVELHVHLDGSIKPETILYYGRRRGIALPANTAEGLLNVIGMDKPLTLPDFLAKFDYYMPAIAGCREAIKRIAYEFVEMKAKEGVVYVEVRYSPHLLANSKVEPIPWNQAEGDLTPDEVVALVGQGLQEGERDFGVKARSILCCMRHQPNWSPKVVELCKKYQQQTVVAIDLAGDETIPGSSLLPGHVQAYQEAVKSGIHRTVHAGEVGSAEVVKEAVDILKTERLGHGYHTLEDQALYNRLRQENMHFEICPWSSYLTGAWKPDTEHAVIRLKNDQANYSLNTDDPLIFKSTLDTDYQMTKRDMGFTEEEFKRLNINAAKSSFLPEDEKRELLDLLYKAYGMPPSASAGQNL
Text: Adenosine Deaminase (ADA) Enzyme Assay
• 1-[(2S,3R)-5-(1,1′-biphenyl-3-yloxy)-2-hydroxy-3-pentyl]imidazole-4-carboxamide (Example 20) • 1-{(2S,3R)-2-hydroxy-5-[3-(2-thienyl)phenoxy]-3-pentyl}imidazole-4-carboxamide (Example 32) • 1-[(2S,3R)-2-hydroxy-5-(2-quinolyloxy)-3-pentyl]imidazole-4-carboxamide (Example 49) • 1-[(2S,3R)-2-hydroxy-5-(2-naphthylthio)-3-pentyl]imidazole-4-carboxamide (Example 76) • 1-[(2S,3R)-2-hydroxy-5-(2-quinolylthio)-3-pentyl]imidazole-4-carboxamide (Example 78) Test Method:
The reaction velocity (V) is measured by a change in absorbance at 265 nm (A265) resulting from the deamination of adenosine. Human ADA was expressed and purified from ADA-deficient bacterial strain. Reaction mixtures of a total volume of 200 μl contained 0.16 μg/ml of ADA and 0.1 mM of adenosine and test compound in 10 mM phosphate buffer saline (pH 7.4). The reaction was started by addition of ADA to a mixture of adenosine and test compound. The reaction was followed at room temperature by recording decrease in A265 for 3 minutes in SPECTRAmax 250 (Molecular Devices, USA) to automatically calculate Vmax. Inhibitory potency of test compound was expressed as IC50 value, the drug concentration required to produce 50% inhibition of Vmax in comparison to vehicle treatment.

Compound	IC50
C[C@H](O)[C@@H](CCOc1cccc(-c2ccccc2)c1)n1cnc(C(N)=O)c1 [Example 20, 1-[(2S,3R)-5-(1,1′-biphenyl-3-yloxy)-2-hydroxy-3-pentyl]imidazole-4-carboxamide]	< 0.02 µM
C[C@H](O)[C@@H](CCSc1ccc2ccccc2c1)n1cnc(C(N)=O)c1 [Example 76, 1-[(2S,3R)-2-hydroxy-5-(2-naphthylthio)-3-pentyl]imidazole-4-carboxamide]	< 0.02 µM
C[C@H](O)[C@@H](CCSc1ccc2ccccc2n1)n1cnc(C(N)=O)c1 [Example 78, 1-[(2S,3R)-2-hydroxy-5-(2-quinolylthio)-3-pentyl]imidazole-4-carboxamide]	< 0.02 µM

Now from value to compound:

IC50	Compound
< 0.02 µM	C[C@H](O)[C@@H](CCOc1ccc2ccccc2n1)n1cnc(C(N)=O)c1 [Example 49, 1-[(2S,3R)-2-hydroxy-5-(2-quinolyloxy)-3-pentyl]imidazole-4-carboxamide]
< 0.02 µM	C[C@H](O)[C@@H](CCOc1cccc(-c2cccs2)c1)n1cnc(C(N)=O)c1 [Example 32, 1-{(2S,3R)-2-hydroxy-5-[3-(2-thienyl)phenoxy]-3-pentyl}imidazole-4-carboxamide]
